In patent US7691848B2, “Pyrrolobenzodiazepine arylcarboxamides and derivatives thereof as follicle-stimulating hormone receptor antagonists” (Wyeth, priority 2005, dated 2010):

Experiments:
[1] = biological target: T1, human FSH receptor (Homo sapiens, UniProt P23945); assay: Follicle-Stimulating Hormone Receptor-Dependent Cre-Luciferase Reporter Gene Assay (CHO FSH-R 6CRE-Luc cells); format: cell-based; conditions: for IC50: dose-response format, in presence of EC50 of purified human FSH; for inhibition at 30 µM: 2-dose format, concentration in parentheses 30 μM, inhibition of the response to EC50 of FSH
T1 construct: host or cells: CHO-K1 (CHO FSH-R 6CRE-Luc, 1D7 cells)
T1 sequence (P23945 18-695): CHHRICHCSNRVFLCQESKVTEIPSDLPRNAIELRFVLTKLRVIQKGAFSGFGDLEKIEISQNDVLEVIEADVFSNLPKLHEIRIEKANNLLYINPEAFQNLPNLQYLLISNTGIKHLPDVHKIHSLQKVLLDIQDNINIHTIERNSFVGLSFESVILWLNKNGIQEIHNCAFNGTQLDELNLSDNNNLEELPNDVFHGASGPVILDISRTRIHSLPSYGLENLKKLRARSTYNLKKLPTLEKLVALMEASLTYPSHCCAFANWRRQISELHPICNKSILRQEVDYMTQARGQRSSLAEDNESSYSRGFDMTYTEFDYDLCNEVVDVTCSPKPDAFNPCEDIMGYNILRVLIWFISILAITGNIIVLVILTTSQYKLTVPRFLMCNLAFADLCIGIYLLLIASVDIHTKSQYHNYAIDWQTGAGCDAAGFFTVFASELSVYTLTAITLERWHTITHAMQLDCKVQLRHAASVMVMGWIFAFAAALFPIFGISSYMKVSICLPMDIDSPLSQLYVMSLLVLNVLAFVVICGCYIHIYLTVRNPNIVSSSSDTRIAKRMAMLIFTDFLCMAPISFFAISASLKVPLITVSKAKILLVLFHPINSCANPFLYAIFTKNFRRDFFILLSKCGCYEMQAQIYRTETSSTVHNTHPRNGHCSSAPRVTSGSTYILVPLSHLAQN
Description: Follicle-Stimulating Hormone Receptor-Dependent Cre-Luciferase Reporter Gene Assay for the Identification of Follicle-Stimulating Hormone (FSH) Antagonists
A Chinese hamster ovarian cell line that stably produces the human FSH receptor and a luciferase reporter gene regulated by cAMP response elements was used to identify and determine the relative potencies of human FSH receptor antagonists. See for example, Kelton, C. A., et al. Mol. Cell. Endocrinol. 89:141-151 (1992), Tilly, J. L., et al. Endocrinology 131:799-806(1992), and George, S. E., et al. J. Biomol. Screening 2:235-240 (1997).
Compound Vehicle: Stock compounds were solubilized in an appropriate vehicle, e.g., phosphate buffered saline (PBS) or dimethyl sulfoxide (DMSO), at 30 mM. The compounds were subsequently diluted in DMSO to working dilutions of 1 and 20 or 30 mM for 2-dose testing format and 1 μM-10 mM for dose-response format. The DMSO dilutions were diluted 500-fold in sterile growth medium [D-MEM/F-12 (GIBCO/BRL; Grand Island, NY) containing 15 mM HEPES, 2 mM 1-glutamine, pyridoxine hydrochloride, phenol red and 5% FetalClone® II (HyClone Laboratories, Inc; Logan, Utah), 0.2% DMSO, 100 units penicillin G/ml, and 100 μg streptomycin sulfate/ml (GIBCO/BRL)]. The concentration of the vehicle in each of the compound dilutions was the same.
Positive Controls: Purified human FSH (>98%) was purchased from Cortex Biochem, Inc. (San Leandro, Calif.) and 3-[(2S*,5R*)-5-{[2-(1H-Indol-3-yl)-ethylcarbamoyl]-methyl}-4-oxo-2-(5-phenylethynyl-thiophen-2-yl)-thiazolidin-3-yl]-benzamide (an FSH-R thiazolidinone antagonist) was prepared by processes described by R. A. Scheuerman et al. in U.S. Pat. No. 6,426,357 (Affymax).
The CHO FSH-R 6CRE-Luc cells (1D7 cells) were obtained from Affymax (Palo Alto, Calif.). These Chinese hamster ovary cells (CHO-K1) were engineered genetically to stably express the recombinant human FSH receptor gene and a luciferase reporter gene under the regulation of 6 copies of a cAMP response element. The cells were plated one day prior to treatment into 96-well white opaque plates at a density of 50,000 cells/100 μl/well in growth medium. On the day of treatment, the growth medium was removed from the wells by aspiration and 50 μl of fresh growth medium was added to each well. The cells were incubated at 37° C. in a humidified incubator with 5% CO2/95% air.
The treated cells were incubated for 4 hours at 37° C. in a humidified incubator with 5% CO2/95% air. At the end of the incubation period, luciferase activity was measured by chemiluminescence using a commercially available kit (LucScreen, Tropix, Inc., Bedford, Mass.) according to the manufacturer's specifications, except that Buffer 1 and Buffer 2 were mixed together in equal proportion prior to the addition of 100 μl of the combined reagents to each well. Chemiluminescence was detected using a luminometer (EG & G Berthold Microlumat LB 96 P, Wallac, Gaithersburg, Md.) with chemiluminescence measured for 1 sec/well. Background luminescence was measured for each well prior to the addition of the LucScreen reagent.
In the 96-well 2-dose format, each compound was tested in duplicate at each dose. […] One plate was used to test a maximum of 22 compounds.
The EC50 of purified human FSH alone was tested in triplicate with each test compound. The doses chosen to test each compound were extrapolated from the initial 2-dose screening process. Along with the test compounds, purified human FSH also was tested in a dose response (0.03, 0.1, 0.3, 1, 3, 10, and 30 ng/ml) for a positive control and quality control. One plate was used for 3 test compounds and the FSH positive control.
Luciferase activity is expressed as relative light units/sec/well. Luciferase activity in antagonist was compared to the appropriate negative and positive controls. For 2-dose testing, results are reported as luciferase activity and are expressed as percent inhibition of the response obtained from the EC50 of FSH.

SMILES | melting point [°C] | IC50 [1] [µM] | inhibition at 30 µM [1] [%]
Cc1ccc(CNC(=O)c2ccc3n2Cc2ccccc2N(C(=O)COc2ccc(Cl)cc2)C3)cc1 [Example 70, 10-[(4-CHLOROPHENOXY)ACETYL]-N-(4-METHYLBENZYL)-10,11-DIHYDRO-5H-PYRROLO[2,1-C][1,4]BENZODIAZEPINE-3-CARBOXAMIDE] | 174 to 176 | – | 17
COc1cc(C(=O)N2Cc3ccc(C(=O)NC(C)c4ccccc4)n3Cc3ccccc32)ccc1-c1ccccc1C (centres unmarked) [Example 58] | 211 | > 30 | –
COc1ccc(CCNC(=O)c2ccc3n2Cc2ccccc2N(C(=O)c2ccc(-c4ccccc4C)c(OC)c2)C3)cc1 [Example 47, 10-[(2-METHOXY-2′-METHYL-1,1′-BIPHENYL-4-YL)CARBONYL]-N-[2-(4-METHOXYPHENYL)ETHYL]-10,11-DIHYDRO-5H-PYRROLO[2,1-C][1,4]BENZODIAZEPINE-3-CARBOXAMIDE] | 193 to 195 | > 30 | –
COc1cc(C(=O)N2Cc3ccc(C(=O)NCCCc4ccccc4)n3Cc3ccccc32)ccc1-c1ccccc1C [Example 54, 10-[(2-METHOXY-2′-METHYL-1,1′-BIPHENYL-4-YL)CARBONYL]-N-(3-PHENYLPROPYL)-10,11-DIHYDRO-5H-PYRROLO[2,1-C][1,4]BENZODIAZEPINE-3-CARBOXAMIDE] | 191 | – | 46
COC(=O)c1ccc(CNC(=O)c2ccc3n2Cc2ccccc2N(C(=O)COc2ccc(Cl)cc2C)C3)cc1 [Example 77, METHYL 4-{[({10-[(4-CHLORO-2-METHYLPHENOXY)ACETYL]-10,11-DIHYDRO-5H-PYRROLO[2, 1-C][1,4]BENZODIAZEPIN-3-YL}CARBONYL)AMINO]METHYL}BENZOATE] | 165 to 167 | – | 3.5
O=C(NCc1cccc(C(F)(F)F)c1)c1ccc2n1Cc1ccccc1N(C(=O)COc1ccc(Cl)cc1)C2 [Example 72, 10-[(4-CHLOROPHENOXY)ACETYL]-N-[3-(TRIFLUOROMETHYL)BENZYL]-10,11-DIHYDRO-5H-PYRROLO[2,1-C][1,4]BENZODIAZEPINE-3-CARBOXAMIDE] | 143 to 145 | > 30 | –
Cc1ccccc1-c1ccc(C(=O)N2Cc3ccc(C(=O)NC(C)c4ccccc4)n3Cc3ccccc32)cc1C (centres unmarked) [Example 13] | 118 to 124 | 8.2 | –
Cc1ccccc1-c1ccc(C(=O)N2Cc3ccc(C(=O)NCCCc4ccccc4)n3Cc3ccccc32)cc1C [Example 25] | 183 to 184 | – | 59
Cc1cccc(CNC(=O)c2ccc3n2Cc2ccccc2N(C(=O)COc2ccc(Cl)cc2)C3)c1 [Example 71, 10-[(4-CHLOROPHENOXY)ACETYL]-N-(3-METHYLBENZYL)-10,11-DIHYDRO-5H-PYRROLO[2,1-C][1,4]BENZODIAZEPINE-3-CARBOXAMIDE] | 130 to 131 | – | 7
COc1ccc(CNC(=O)c2ccc3n2Cc2ccccc2N(C(=O)c2ccc(-c4ccccc4C)c(OC)c2)C3)cc1 [Example 36, N-(4-METHOXYBENZYL)-10-[(2-METHOXY-2′-METHYL-1,1′-BIPHENYL-4-YL)CARBONYL]-10,11-DIHYDRO-5H-PYRROLO[2,1-C][1,4]BENZODIAZEPINE-3-CARBOXAMIDE] | 178 to 179 | – | 60
COc1cc(C(=O)N2Cc3ccc(C(=O)NCc4ccc(C)cc4C)n3Cc3ccccc32)ccc1-c1ccccc1C [Example 46, N-(2,4-DIMETHYLBENZYL)-10-[(2-METHOXY-2′-METHYL-1,1′-BIPHENYL-4-YL)CARBONYL]-10,11-DIHYDRO-5H-PYRROLO[2,1-C][1,4]BENZODIAZEPINE-3-CARBOXAMIDE] | 161 to 162 | – | 44
COc1ccccc1-c1ccc(C(=O)N2Cc3ccc(C(=O)NCCc4ccc(O)cc4)n3Cc3ccccc32)cc1C [Example 66, N-[2-(4-HYDROXYPHENYL)ETHYL]-10-[(2′-METHOXY-2-METHYL-1,1′-BIPHENYL-4-YL)CARBONYL]-10,11-DIHYDRO-5H-PYRROLO[2,1-C][1,4]BENZODIAZEPINE-3-CARBOXAMIDE] | 138 to 147 | > 30 | –

Now from value to compound:

melting point [°C] | IC50 [1] [µM] | inhibition at 30 µM [1] [%] | SMILES
175 | > 30 | – | COc1cc(CNC(=O)c2ccc3n2Cc2ccccc2N(C(=O)c2ccc(-c4ccccc4C)c(OC)c2)C3)cc(OC)c1 [Example 89, N-(3,5-DIMETHOXYBENZYL)-10-[(2-METHOXY-2′-METHYL-1,1′-BIPHENYL-4-YL)CARBONYL]-10,11-DIHYDRO-5H-PYRROLO[2,1-C][1,4]BENZODIAZEPINE-3-CARBOXAMIDE]
168 | – | 37 | COc1cc(CNC(=O)c2ccc3n2Cc2ccccc2N(C(=O)CSc2ccc(Br)cc2)C3)ccc1O [Example 82, 10-{[(4-BROMOPHENYL)THIO]ACETYL}-N-(4-HYDROXY-3-METHOXYBENZYL)-10,11-DIHYDRO-5H-PYRROLO[2,1-C][1,4]BENZODIAZEPINE-3-CARBOXAMIDE]
159 to 161 | – | 13 | Cc1cc(-c2ccccc2C)ccc1NC(=O)c1ccc2n1Cc1ccccc1N(C(=O)COc1ccc(Cl)cc1)C2 [Example 79]
168 to 169 | – | 35 | O=C(NCCc1ccc(O)cc1)c1ccc2n1Cc1ccccc1N(C(=O)CSc1ccc(Br)cc1)C2 [Example 86, 10-{[(4-BROMOPHENYL)THIO]ACETYL}-N-[2-(4-HYDROXYPHENYL)ETHYL]-10,11-DIHYDRO-5H-PYRROLO[2,1-C][1,4]BENZODIAZEPINE-3-CARBOXAMIDE]
131 to 132 | – | 24 | Cc1ccc(CNC(=O)c2ccc3n2Cc2ccccc2N(C(=O)CSc2ccc(Br)cc2)C3)cc1 [Example 83, 10-{[(4-BROMOPHENYL)THIO]ACETYL}-N-(4-METHYLBENZYL)-10,11-DIHYDRO-5H-PYRROLO[2,1-C][1,4]BENZODIAZEPINE-3-CARBOXAMIDE]
148 to 150 | > 30 | – | Cc1ccccc1-c1ccc(C(=O)N2Cc3ccc(C(=O)NCc4ccc(C(=O)c5ccccc5)cc4)n3Cc3ccccc32)cc1C [Example 88]
154 to 155 | > 30 | – | Cc1ccccc1-c1ccc(C(=O)N2Cc3ccc(C(=O)NCc4ccc(N(C)C)cc4)n3Cc3ccccc32)cc1C [Example 91]
